According to EPA's CvTdb concentration-time database:

What was measured:
Mouse = assay: concentration in plasma after dosing; details: dosed: 2-Hydroxy-4-methoxybenzophenone, 100 mg/kg, oral, Female, B6C3F1
Rat [1] = assay: concentration in plasma after dosing; details: dosed: Nitrite, 80 mg/kg, oral, Female, F344
Rat [2] = assay: concentration in plasma after dosing; details: dosed: Nitrite, 80 mg/kg, oral, Female, F344; remark: listed apart in the source
Rat [3] = assay: concentration in plasma after dosing; details: 2 min; dosed: Nitrite; 80 mg/kg; oral; Female; F344
Rat [4] = assay: concentration in plasma after dosing; details: dosed: Fluorotelomer alcohol 8+2, 12 mg/kg, oral, Male, Harlan Sprague Dawley
Rat [5] = assay: concentration in liver after dosing; details: 3 h; dosed: Fluorotelomer alcohol 8+2; 24 mg/kg; oral; Male; Harlan Sprague Dawley
Rat [6] = assay: concentration in brain after dosing; details: 12 h; dosed: Perfluorooctanoic acid; 12 mg/kg; oral; Male; Harlan Sprague Dawley
Rat [7] = assay: concentration in brain after dosing; details: 6 h; dosed: Perfluorooctanoic acid; 12 mg/kg; oral; Male; Harlan Sprague Dawley
Rat [8] = assay: concentration in liver after dosing; details: 6 h; dosed: Fluorotelomer alcohol 8+2; 80 mg/kg; oral; Female; Harlan Sprague Dawley
Rat [9] = assay: concentration in plasma after dosing; details: dosed: Potassium Perfluorobutane Sulfonate, 4 mg/kg, oral, Male, Harlan Sprague Dawley
Rat [10] = assay: concentration in plasma after dosing; details: dosed: Potassium Perfluorobutane Sulfonate, 20 mg/kg, oral, Male, Harlan Sprague Dawley
Rat [11] = assay: concentration in liver after dosing; details: 0.5 h; dosed: Potassium Perfluorobutane Sulfonate; 20 mg/kg; oral; Female; Harlan Sprague Dawley
Rat [12] = assay: concentration in liver after dosing; details: 1 h; dosed: Potassium Perfluorobutane Sulfonate; 20 mg/kg; oral; Male; Harlan Sprague Dawley
Rat [13] = assay: concentration in plasma after dosing; details: dosed: Potassium Perfluorobutane Sulfonate, 4 mg/kg, oral, Male, Harlan Sprague Dawley; remark: listed apart in the source
rat [14] = assay: concentration in adipose after dosing (ugEq/g tissue); details: dosed: benzo[a]pyrene, iv, male, Wistar

COc1ccc(C(=O)c2ccccc2)c(O)c1 [2-Hydroxy-4-methoxybenzophenone]
Mouse
Details | concentration in plasma [ng/mL]
0.25 h | 151
2 h | 13.9
2.5 min | 29.6
3 h | 9.13
10 min | 62.3

O=N[O-] [Nitrite]
concentration in plasma [ng/mL]
Details | Rat [1] | Rat [2]
0.5 h | 20500 | 11900
4 h | 4900 | 2400

Details | concentration in plasma [ng/mL]
Rat [3] | 3900

O=C(O)C(F)(F)C(F)(F)C(F)(F)C(F)(F)C(F)(F)C(F)(F)C(F)(F)F [Perfluorooctanoic acid]
Rat [4]
Details | concentration in plasma [ng/mL]
0.5 h | 79.5
9 h | 793

Details | concentration in brain [ng/g] | concentration in liver [ng/g]
Rat [5] | – | 1440
Rat [6] | 1260 | –
Rat [7] | 1350 | –
Rat [8] | – | 1600

O=S(=O)([O-])C(F)(F)C(F)(F)C(F)(F)C(F)(F)F.[K+] [Potassium Perfluorobutane Sulfonate]
Details | concentration in plasma [ng/mL]
Rat [9], 1 h | 13800
Rat [9], 24 h | 245
Rat [10], 5 min | 1130
Rat [10], 9 h | 13200
Rat [13], 0.5 h | 7030
Rat [13], 9 h | 5080

Details | concentration in liver [ng/g]
Rat [11] | 48000
Rat [12] | 100000

c1ccc2c(c1)cc1ccc3cccc4ccc2c1c34 [benzo[a]pyrene]
concentration in adipose, rat [14]
Details | 2 mg/kg | 6 mg/kg | 15 mg/kg
0.5 h | 2.77 | 2.29 | 8.6
0.75 h | 2.4 | 4.54 | 13.4
1 h | 3.86 | 3.99 | 9.76
1.5 h | 2.58 | 5.25 | 14.8
2 h | 3.96 | 3.37 | 17.1
3 h | 3.29 | 2.88 | 19.8
4 h | 2.96 | 2.38 | 15.4
5 h | 3.03 | 3.88 | 27.8
5 min | 1.06 | 0.37 | 1.47
6 h | 2.28 | 4.26 | 15.1
8 h | 3.13 | 4.09 | 17.4
10 min | 1.22 | 0.81 | 2.73
20 min | 1.82 | 2.04 | 5.65
24 h | 1.38 | – | 11.1
32 h | 1.46 | 1.02 | 5.85
